# PubChem BioAssay AID248 (DTP/NCI, 2004)
# Values joined by “and” are separate entries in the source; they are usually repeats but may differ in a detail not shown here. Equal entries are not always repeated. Inconclusive results and toxic doses are left out.
# Test system: L1210 leukemia ip in BDF1 mice, survival T/C
# Experiment: NCI In Vivo Anticancer Drug Screen. Data for tumor model L1210 Leukemia (intraperitoneal) in B6D2F1 (BDF1) mice
# Conditions: higher = longer survival
# Procedure, shortened: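 Read-out is survival time, reported as the treated-group measurement over the vehicle-control measurement.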
smiles,measurement,setting,value
CN(N=O)C(=O)NC(C=O)C(O)C(O)C(O)CO (centres undefined),T/C,"endpoint: mean survival time, dose: 3.5 mg/kg/injection, schedule: Q#A X Z (ip), vehicle: saline",108 % of control
same,T/C,"endpoint: mean survival time, dose: 4.0 mg/kg/injection, schedule: Q#A X Z (ip), vehicle: saline",105 % of control
same,T/C,"endpoint: mean survival time, dose: 5.5 mg/kg/injection, schedule: Q#A X Z (ip), vehicle: saline",116 % of control
same,T/C,"endpoint: mean survival time, dose: 6.0 mg/kg/injection, schedule: Q01DX Z (ip), vehicle: saline",105 % of control
same,T/C,"endpoint: mean survival time, dose: 6.0 mg/kg/injection, schedule: Q#A X Z (ip), vehicle: saline",103 % of control
same,T/C,"endpoint: mean survival time, dose: 8.0 mg/kg/injection, schedule: Q01DX Z (ip), vehicle: saline",97 % of control
same,T/C,"endpoint: mean survival time, dose: 8.5 mg/kg/injection, schedule: Q#A X Z (ip), vehicle: saline",118 % of control
same,T/C,"endpoint: mean survival time, dose: 9.0 mg/kg/injection, schedule: Q#A X Z (ip), vehicle: saline",106 % of control
same,T/C,"endpoint: mean survival time, dose: 12.0 mg/kg/injection, schedule: Q01DX Z (ip), vehicle: saline",105 % of control and 106 % of control
same,T/C,"endpoint: mean survival time, dose: 12.5 mg/kg/injection, schedule: Q01DX009 (ip), vehicle: saline",95 % of control and 101 % of control
same,T/C,"endpoint: mean survival time, dose: 12.5 mg/kg/injection, schedule: Q01DX Z (ip), vehicle: saline",96 % of control and 101 % of control
same,T/C,"endpoint: mean survival time, dose: 18.0 mg/kg/injection, schedule: Q01DX Z (ip), vehicle: saline",108 % of control
same,T/C,"endpoint: mean survival time, dose: 24.5 mg/kg/injection, schedule: Q01DX Z (ip), vehicle: water",111 % of control
same,T/C,"endpoint: mean survival time, dose: 25.0 mg/kg/injection, schedule: Q01DX009 (ip), vehicle: saline",101 % of control and 103 % of control
same,T/C,"endpoint: mean survival time, dose: 25.0 mg/kg/injection, schedule: Q01DX Z (im), vehicle: saline",109 % of control
same,T/C,"endpoint: mean survival time, dose: 26.0 mg/kg/injection, schedule: Q01DX Z (ip), vehicle: saline",118 % of control
same,T/C,"endpoint: mean survival time, dose: 26.0 mg/kg/injection, schedule: Q01DX Z (sc), vehicle: saline",110 % of control
same,T/C,"endpoint: mean survival time, dose: 30.0 mg/kg/injection, schedule: Q#A X Z (ip), vehicle: saline",112 % of control
same,T/C,"endpoint: mean survival time, dose: 34.0 mg/kg/injection, schedule: Q03DX005 (ip), vehicle: saline",103 % of control
same,T/C,"endpoint: mean survival time, dose: 36.0 mg/kg/injection, schedule: Q03DX003 (ip), vehicle: saline",118 % of control
same,T/C,"endpoint: mean survival time, dose: 40.0 mg/kg/injection, schedule: Q01DX009 (iv), vehicle: saline",120 % of control
same,T/C,"endpoint: mean survival time, dose: 40.0 mg/kg/injection, schedule: Q01DX Z (ip), vehicle: saline",151 % of control
same,T/C,"endpoint: mean survival time, dose: 40.0 mg/kg/injection, schedule: Q01DX Z (sc), vehicle: saline",106 % of control and 107 % of control and 112 % of control
same,T/C,"endpoint: mean survival time, dose: 50.0 mg/kg/injection, schedule: Q01DX009 (ip), vehicle: saline",110 % of control and 111 % of control
same,T/C,"endpoint: mean survival time, dose: 50.0 mg/kg/injection, schedule: Q01DX Z (im), vehicle: saline",100 % of control
same,T/C,"endpoint: mean survival time, dose: 52.0 mg/kg/injection, schedule: Q03DX005 (ip), vehicle: saline",108 % of control
same,T/C,"endpoint: mean survival time, dose: 60.0 mg/kg/injection, schedule: Q01DX009 (iv), vehicle: saline",111 % of control
same,T/C,"endpoint: mean survival time, dose: 60.0 mg/kg/injection, schedule: Q01DX Z (ip), vehicle: saline",160 % of control
same,T/C,"endpoint: mean survival time, dose: 60.0 mg/kg/injection, schedule: Q01DX Z (iv), vehicle: saline",115 % of control
same,T/C,"endpoint: mean survival time, dose: 78.0 mg/kg/injection, schedule: Q03DX005 (ip), vehicle: saline",118 % of control
same,T/C,"endpoint: mean survival time, dose: 78.0 mg/kg/injection, schedule: Q03DX 5 (iv), vehicle: saline",117 % of control
same,T/C,"endpoint: mean survival time, dose: 80.0 mg/kg/injection, schedule: Q03DX004 (ip), vehicle: saline",151 % of control
same,T/C,"endpoint: mean survival time, dose: 80.0 mg/kg/injection, schedule: Q07DX001 (ip), vehicle: saline",124 % of control
same,T/C,"endpoint: mean survival time, dose: 90.0 mg/kg/injection, schedule: Q01DX 1 (iv), vehicle: saline",118 % of control
same,T/C,"endpoint: mean survival time, dose: 90.0 mg/kg/injection, schedule: Q01DX009 (iv), vehicle: saline",115 % of control
same,T/C,"endpoint: mean survival time, dose: 90.0 mg/kg/injection, schedule: Q01DX Z (ip), vehicle: saline",152 % of control and 166 % of control
same,T/C,"endpoint: mean survival time, dose: 90.0 mg/kg/injection, schedule: Q01DX Z (iv), vehicle: saline",121 % of control
same,T/C,"endpoint: mean survival time, dose: 90.0 mg/kg/injection, schedule: Q03DX 5 (iv), vehicle: saline",114 % of control
same,T/C,"endpoint: mean survival time, dose: 90.0 mg/kg/injection, schedule: Q07DX 2 (iv), vehicle: saline",106 % of control
same,T/C,"endpoint: mean survival time, dose: 99.5 mg/kg/injection, schedule: Q01DX Z (ip), vehicle: water",111 % of control
same,T/C,"endpoint: mean survival time, dose: 100.0 mg/kg/injection, schedule: Q01DX009 (ip), vehicle: saline",101 % of control and 120 % of control
same,T/C,"endpoint: mean survival time, dose: 100.0 mg/kg/injection, schedule: Q01DX Z (im), vehicle: saline",120 % of control and 124 % of control
same,T/C,"endpoint: mean survival time, dose: 100.0 mg/kg/injection, schedule: Q01DX Z (oral), vehicle: saline",111 % of control
same,T/C,"endpoint: mean survival time, dose: 104.0 mg/kg/injection, schedule: Q01DX Z (oral), vehicle: saline",101 % of control
same,T/C,"endpoint: mean survival time, dose: 120.0 mg/kg/injection, schedule: Q01DX001 (ip), vehicle: saline",119 % of control
same,T/C,"endpoint: mean survival time, dose: 120.0 mg/kg/injection, schedule: Q01DX 1 (iv), vehicle: saline",112 % of control
same,T/C,"endpoint: mean survival time, dose: 120.0 mg/kg/injection, schedule: Q07DX 2 (iv), vehicle: saline",102 % of control
same,T/C,"endpoint: mean survival time, dose: 125.0 mg/kg/injection, schedule: Q01DX001 (ip), vehicle: saline",114 % of control
same,T/C,"endpoint: mean survival time, dose: 135.0 mg/kg/injection, schedule: Q01DX Z (iv), vehicle: saline",95 % of control
same,T/C,"endpoint: mean survival time, dose: 135.0 mg/kg/injection, schedule: Q01DX Z (sc), vehicle: saline",108 % of control and 91 % of control and 92 % of control
same,T/C,"endpoint: mean survival time, dose: 160.0 mg/kg/injection, schedule: Q01DX Z (oral), vehicle: saline",101 % of control
same,T/C,"endpoint: mean survival time, dose: 180.0 mg/kg/injection, schedule: Q01DX 1 (iv), vehicle: saline",109 % of control
same,T/C,"endpoint: mean survival time, dose: 180.0 mg/kg/injection, schedule: Q03DX Z (ip), vehicle: saline",151 % of control
same,T/C,"endpoint: mean survival time, dose: 180.0 mg/kg/injection, schedule: Q07DX 2 (iv), vehicle: saline",111 % of control
same,T/C,"endpoint: mean survival time, dose: 182.0 mg/kg/injection, schedule: Q07DX Z (ip), vehicle: saline",123 % of control
same,T/C,"endpoint: mean survival time, dose: 200.0 mg/kg/injection, schedule: Q01DX009 (ip), vehicle: saline",90 % of control
same,T/C,"endpoint: mean survival time, dose: 200.0 mg/kg/injection, schedule: Q01DX Z (im), vehicle: saline",91 % of control
same,T/C,"endpoint: mean survival time, dose: 200.0 mg/kg/injection, schedule: Q01DX Z (ip), vehicle: saline",87 % of control
same,T/C,"endpoint: mean survival time, dose: 200.0 mg/kg/injection, schedule: Q01DX Z (oral), vehicle: saline",105 % of control
same,T/C,"endpoint: mean survival time, dose: 240.0 mg/kg/injection, schedule: Q01DX Z (oral), vehicle: saline",101 % of control
same,T/C,"endpoint: mean survival time, dose: 250.0 mg/kg/injection, schedule: Q01DX001 (ip), vehicle: saline",115 % of control
same,T/C,"endpoint: mean survival time, dose: 270.0 mg/kg/injection, schedule: Q01DX 1 (iv), vehicle: saline",98 % of control
same,T/C,"endpoint: mean survival time, dose: 270.0 mg/kg/injection, schedule: Q07DX 2 (iv), vehicle: saline",106 % of control
same,T/C,"endpoint: mean survival time, dose: 400.0 mg/kg/injection, schedule: Q01DX Z (oral), vehicle: saline",117 % of control
same,T/C,"endpoint: mean survival time, dose: 405.0 mg/kg/injection, schedule: Q01DX001 (ip), vehicle: saline",108 % of control and 89 % of control
same,T/C,"endpoint: mean survival time, dose: 420.0 mg/kg/injection, schedule: Q07DX Z (ip), vehicle: saline",93 % of control
same,T/C,"endpoint: mean survival time, dose: 500.0 mg/kg/injection, schedule: Q01DX001 (ip), vehicle: saline",117 % of control
same,T/C,"endpoint: mean survival time, dose: 540.0 mg/kg/injection, schedule: Q01DX Z (oral), vehicle: saline",95 % of control
same,T/C,"endpoint: mean survival time, dose: 800.0 mg/kg/injection, schedule: Q01DX Z (oral), vehicle: saline",105 % of control
same,T/C,"endpoint: mean survival time, dose: 1000.0 mg/kg/injection, schedule: Q01DX001 (ip), vehicle: saline",97 % of control
same,T/C,"endpoint: median survival time, dose: 25.0 mg/kg/injection, schedule: Q01DX017 (ip), vehicle: water",122 % of control
same,T/C,"endpoint: median survival time, dose: 50.0 mg/kg/injection, schedule: Q01DX017 (ip), vehicle: water",150 % of control
CC(=O)c1cccc(NC(=O)CCCCCCCCC(=O)Nc2cccc(C(C)=O)c2)c1,T/C,"endpoint: mean survival time, dose: 100.0 mg/kg/injection, schedule: Q01DX009 (ip), vehicle: Klucel (hydroxypropylcellulose) (HPC)",96 % of control
same,T/C,"endpoint: mean survival time, dose: 200.0 mg/kg/injection, schedule: Q01DX009 (ip), vehicle: Klucel (hydroxypropylcellulose) (HPC)",91 % of control
same,T/C,"endpoint: mean survival time, dose: 400.0 mg/kg/injection, schedule: Q01DX009 (ip), vehicle: Klucel (hydroxypropylcellulose) (HPC)",94 % of control
NNc1ccc(-c2ccccc2)cc1,T/C,"endpoint: mean survival time, dose: 75.0 mg/kg/injection, schedule: Q01DX001 (ip), vehicle: carboxymethylcellulose (CMC)",95 % of control
same,T/C,"endpoint: mean survival time, dose: 150.0 mg/kg/injection, schedule: Q01DX001 (ip), vehicle: carboxymethylcellulose (CMC)",92 % of control
same,T/C,"endpoint: mean survival time, dose: 300.0 mg/kg/injection, schedule: Q01DX001 (ip), vehicle: carboxymethylcellulose (CMC)",97 % of control
OCC1OC(n2cc(I)c3cncnc32)C(O)C1O (centres undefined),T/C,"endpoint: mean survival time, dose: 12.5 mg/kg/injection, schedule: Q01DX005 (ip), vehicle: saline",102 % of control
same,T/C,"endpoint: mean survival time, dose: 25.0 mg/kg/injection, schedule: Q01DX005 (ip), vehicle: saline",106 % of control
same,T/C,"endpoint: mean survival time, dose: 50.0 mg/kg/injection, schedule: Q01DX005 (ip), vehicle: saline",106 % of control
CCCCCCNC1=C(C)C(=O)C(NCCCCCC)=C(C)C1=O,T/C,"endpoint: mean survival time, dose: 100.0 mg/kg/injection, schedule: Q01DX001 (ip), vehicle: saline",104 % of control
same,T/C,"endpoint: mean survival time, dose: 200.0 mg/kg/injection, schedule: Q01DX001 (ip), vehicle: saline",104 % of control
same,T/C,"endpoint: mean survival time, dose: 400.0 mg/kg/injection, schedule: Q01DX001 (ip), vehicle: saline",93 % of control
